# In article PMC9851200, “Multiparameter phenotypic screening for endogenous TFEB and TFE3 translocation identifies novel chemical series modulating lysosome function” (Autophagy, 2022):
# Read-outs that look alike come from different tables or passages of the source.
# Columns and labels:
# Experiment in all cases: biochemical
# Assay type in all cases: binding
# [1] = target: T1, cellular kinases of SH-SY5Y cells (Homo sapiens, UniProt Q13233); settings: 2µM; SH-SY5Y cells; Labeling Site Lys2; DVKGANLLIDSTGQR; read-out: KiNativ in-cell binding, % Inhibition, MAP3K1
# T1 construct: endogenous in cells; host or cells: SH-SY5Y
# Description: (§1) As KINOMEscan is an in vitro assay, and as different cell types have variable kinase expression profiles we sought to determine the kinase binding profile in our SH-SY5Y TFEB-relocalization cell model. […] Bound kinases were pulled down and analyzed by mass spectrometry to determine the in situ kinase binding profile for each compound.
# [2] = target: T2, cellular kinases of SH-SY5Y cells (Homo sapiens, UniProt Q8IZL9); settings: 2µM; SH-SY5Y cells; Labeling Site Lys2; DLKPANLLISASGQLK; read-out: KiNativ in-cell binding, % Inhibition, CDK20
# T2 construct: endogenous in cells; host or cells: SH-SY5Y
# Description: as §1
# [3] = target: cellular kinases of SH-SY5Y cells (Homo sapiens, UniProt Q13557); settings: 2µM; SH-SY5Y cells; Labeling Site Lys1; IPTGQEYAAKIINTKK; read-out: KiNativ in-cell binding, % Inhibition, CaMK2d
# Description: as §1
# [4] = target: cellular kinases of SH-SY5Y cells (Homo sapiens, UniProt P04049); settings: 2µM; SH-SY5Y cells; Labeling Site Lys2; DMKSNNIFLHEGLTVK; read-out: KiNativ in-cell binding, % Inhibition, RAF1
# Description: as §1
# [5] = target: T3, cellular kinases of SH-SY5Y cells (Homo sapiens, UniProt O96017); settings: 2µM, SH-SY5Y cells, read-out: KiNativ in-cell binding, % Inhibition, CHEK2/CHK2
# T3 construct: endogenous in cells; host or cells: SH-SY5Y
# Description: as §1
# [6] = target: T4, cellular kinases of SH-SY5Y cells (Homo sapiens, UniProt Q92918); settings: 2µM, SH-SY5Y cells, read-out: KiNativ in-cell binding, % Inhibition, MAP4K1/HPK1
# T4 construct: endogenous in cells; host or cells: SH-SY5Y
# Description: as §1
# [7] = target: cellular kinases of SH-SY5Y cells (Homo sapiens, UniProt P41240); settings: 2µM, SH-SY5Y cells, read-out: KiNativ in-cell binding, % Inhibition, CSK
# Description: as §1
# [8] = target: T5, cellular kinases of SH-SY5Y cells (Homo sapiens, UniProt Q07912); settings: 2µM, SH-SY5Y cells, read-out: KiNativ in-cell binding, % Inhibition, TNK2/ACK
# T5 construct: endogenous in cells; host or cells: SH-SY5Y
# Description: as §1
# [9] = target: T6, cellular kinases of SH-SY5Y cells (Homo sapiens, UniProt Q9Y4K4); settings: 2µM, SH-SY5Y cells, read-out: KiNativ in-cell binding, % Inhibition, MAP4K5
# T6 construct: endogenous in cells; host or cells: SH-SY5Y
# Description: as §1
# [10] = target: cellular kinases of SH-SY5Y cells (Homo sapiens, UniProt P31749); settings: 2µM; SH-SY5Y cells; Labeling Site ATP Loop; GTFGKVILVK; read-out: KiNativ in-cell binding, % Inhibition, AKT1
# Description: as §1
# [11] = target: cellular kinases of SH-SY5Y cells (Homo sapiens, UniProt Q96Q15); settings: 2µM, SH-SY5Y cells, Labeling Site ATP, read-out: KiNativ in-cell binding, % Inhibition, SMG1
# Description: as §1
# [12] = target: T7, cellular kinases of SH-SY5Y cells (Homo sapiens, UniProt Q16644); settings: 2µM; SH-SY5Y cells; Labeling Site ATP Loop; QVLGLGVNGKVLECFHR; read-out: KiNativ in-cell binding, % Inhibition, MAPKAPK3
# T7 construct: endogenous in cells; host or cells: SH-SY5Y
# Description: as §1
# [13] = target: cellular kinases of SH-SY5Y cells (Homo sapiens, UniProt Q13043); settings: 2µM; SH-SY5Y cells; Labeling Site Lys1; ETGQIVAIKQVPVESDLQEIIK; read-out: KiNativ in-cell binding, % Inhibition, STK4/MST1
# Description: as §1
# [14] = target: T8, cellular kinases of SH-SY5Y cells (Homo sapiens, UniProt Q14004); settings: read-out: KiNativ in-cell binding, % Inhibition, CDK13/CHED
# T8 construct: endogenous in cells; host or cells: SH-SY5Y
# Description: as §1
# [15] = target: cellular kinases of SH-SY5Y cells (Homo sapiens, UniProt Q2M2I8); settings: 2µM; SH-SY5Y cells; labeling site Lys2; peptide DLKVENILLHDR
# Description: as §1
# [16] = target: cellular kinases of SH-SY5Y cells (Homo sapiens, UniProt P27448); settings: 2µM; SH-SY5Y cells; Labeling Site Lys1; EVAIKIIDKTQLNPTSLQK; read-out: KiNativ in-cell binding, % Inhibition, MARK3
# Description: as §1
# [17] = target: cellular kinases of SH-SY5Y cells (Homo sapiens, UniProt Q9Y2U5); settings: 2µM; SH-SY5Y cells; Labeling Site Lys1; ELAVKQVQFDPDSPETSKEVNALECEIQLLK; read-out: KiNativ in-cell binding, % Inhibition, MAP3K2
# Description: as §1
# [18] = target: T9, cellular kinases of SH-SY5Y cells (Homo sapiens, UniProt Q14164); settings: 2µM; SH-SY5Y cells; Labeling Site Lys1; SGELVAVKVFNTTSYLRPR; read-out: KiNativ in-cell binding, % Inhibition, IKBKE/IKKe
# T9 construct: endogenous in cells; host or cells: SH-SY5Y
# Description: as §1
# Sequence of cellular kinases of SH-SY5Y cells (Homo sapiens, UniProt Q96Q15) (Q96Q15 whole entry): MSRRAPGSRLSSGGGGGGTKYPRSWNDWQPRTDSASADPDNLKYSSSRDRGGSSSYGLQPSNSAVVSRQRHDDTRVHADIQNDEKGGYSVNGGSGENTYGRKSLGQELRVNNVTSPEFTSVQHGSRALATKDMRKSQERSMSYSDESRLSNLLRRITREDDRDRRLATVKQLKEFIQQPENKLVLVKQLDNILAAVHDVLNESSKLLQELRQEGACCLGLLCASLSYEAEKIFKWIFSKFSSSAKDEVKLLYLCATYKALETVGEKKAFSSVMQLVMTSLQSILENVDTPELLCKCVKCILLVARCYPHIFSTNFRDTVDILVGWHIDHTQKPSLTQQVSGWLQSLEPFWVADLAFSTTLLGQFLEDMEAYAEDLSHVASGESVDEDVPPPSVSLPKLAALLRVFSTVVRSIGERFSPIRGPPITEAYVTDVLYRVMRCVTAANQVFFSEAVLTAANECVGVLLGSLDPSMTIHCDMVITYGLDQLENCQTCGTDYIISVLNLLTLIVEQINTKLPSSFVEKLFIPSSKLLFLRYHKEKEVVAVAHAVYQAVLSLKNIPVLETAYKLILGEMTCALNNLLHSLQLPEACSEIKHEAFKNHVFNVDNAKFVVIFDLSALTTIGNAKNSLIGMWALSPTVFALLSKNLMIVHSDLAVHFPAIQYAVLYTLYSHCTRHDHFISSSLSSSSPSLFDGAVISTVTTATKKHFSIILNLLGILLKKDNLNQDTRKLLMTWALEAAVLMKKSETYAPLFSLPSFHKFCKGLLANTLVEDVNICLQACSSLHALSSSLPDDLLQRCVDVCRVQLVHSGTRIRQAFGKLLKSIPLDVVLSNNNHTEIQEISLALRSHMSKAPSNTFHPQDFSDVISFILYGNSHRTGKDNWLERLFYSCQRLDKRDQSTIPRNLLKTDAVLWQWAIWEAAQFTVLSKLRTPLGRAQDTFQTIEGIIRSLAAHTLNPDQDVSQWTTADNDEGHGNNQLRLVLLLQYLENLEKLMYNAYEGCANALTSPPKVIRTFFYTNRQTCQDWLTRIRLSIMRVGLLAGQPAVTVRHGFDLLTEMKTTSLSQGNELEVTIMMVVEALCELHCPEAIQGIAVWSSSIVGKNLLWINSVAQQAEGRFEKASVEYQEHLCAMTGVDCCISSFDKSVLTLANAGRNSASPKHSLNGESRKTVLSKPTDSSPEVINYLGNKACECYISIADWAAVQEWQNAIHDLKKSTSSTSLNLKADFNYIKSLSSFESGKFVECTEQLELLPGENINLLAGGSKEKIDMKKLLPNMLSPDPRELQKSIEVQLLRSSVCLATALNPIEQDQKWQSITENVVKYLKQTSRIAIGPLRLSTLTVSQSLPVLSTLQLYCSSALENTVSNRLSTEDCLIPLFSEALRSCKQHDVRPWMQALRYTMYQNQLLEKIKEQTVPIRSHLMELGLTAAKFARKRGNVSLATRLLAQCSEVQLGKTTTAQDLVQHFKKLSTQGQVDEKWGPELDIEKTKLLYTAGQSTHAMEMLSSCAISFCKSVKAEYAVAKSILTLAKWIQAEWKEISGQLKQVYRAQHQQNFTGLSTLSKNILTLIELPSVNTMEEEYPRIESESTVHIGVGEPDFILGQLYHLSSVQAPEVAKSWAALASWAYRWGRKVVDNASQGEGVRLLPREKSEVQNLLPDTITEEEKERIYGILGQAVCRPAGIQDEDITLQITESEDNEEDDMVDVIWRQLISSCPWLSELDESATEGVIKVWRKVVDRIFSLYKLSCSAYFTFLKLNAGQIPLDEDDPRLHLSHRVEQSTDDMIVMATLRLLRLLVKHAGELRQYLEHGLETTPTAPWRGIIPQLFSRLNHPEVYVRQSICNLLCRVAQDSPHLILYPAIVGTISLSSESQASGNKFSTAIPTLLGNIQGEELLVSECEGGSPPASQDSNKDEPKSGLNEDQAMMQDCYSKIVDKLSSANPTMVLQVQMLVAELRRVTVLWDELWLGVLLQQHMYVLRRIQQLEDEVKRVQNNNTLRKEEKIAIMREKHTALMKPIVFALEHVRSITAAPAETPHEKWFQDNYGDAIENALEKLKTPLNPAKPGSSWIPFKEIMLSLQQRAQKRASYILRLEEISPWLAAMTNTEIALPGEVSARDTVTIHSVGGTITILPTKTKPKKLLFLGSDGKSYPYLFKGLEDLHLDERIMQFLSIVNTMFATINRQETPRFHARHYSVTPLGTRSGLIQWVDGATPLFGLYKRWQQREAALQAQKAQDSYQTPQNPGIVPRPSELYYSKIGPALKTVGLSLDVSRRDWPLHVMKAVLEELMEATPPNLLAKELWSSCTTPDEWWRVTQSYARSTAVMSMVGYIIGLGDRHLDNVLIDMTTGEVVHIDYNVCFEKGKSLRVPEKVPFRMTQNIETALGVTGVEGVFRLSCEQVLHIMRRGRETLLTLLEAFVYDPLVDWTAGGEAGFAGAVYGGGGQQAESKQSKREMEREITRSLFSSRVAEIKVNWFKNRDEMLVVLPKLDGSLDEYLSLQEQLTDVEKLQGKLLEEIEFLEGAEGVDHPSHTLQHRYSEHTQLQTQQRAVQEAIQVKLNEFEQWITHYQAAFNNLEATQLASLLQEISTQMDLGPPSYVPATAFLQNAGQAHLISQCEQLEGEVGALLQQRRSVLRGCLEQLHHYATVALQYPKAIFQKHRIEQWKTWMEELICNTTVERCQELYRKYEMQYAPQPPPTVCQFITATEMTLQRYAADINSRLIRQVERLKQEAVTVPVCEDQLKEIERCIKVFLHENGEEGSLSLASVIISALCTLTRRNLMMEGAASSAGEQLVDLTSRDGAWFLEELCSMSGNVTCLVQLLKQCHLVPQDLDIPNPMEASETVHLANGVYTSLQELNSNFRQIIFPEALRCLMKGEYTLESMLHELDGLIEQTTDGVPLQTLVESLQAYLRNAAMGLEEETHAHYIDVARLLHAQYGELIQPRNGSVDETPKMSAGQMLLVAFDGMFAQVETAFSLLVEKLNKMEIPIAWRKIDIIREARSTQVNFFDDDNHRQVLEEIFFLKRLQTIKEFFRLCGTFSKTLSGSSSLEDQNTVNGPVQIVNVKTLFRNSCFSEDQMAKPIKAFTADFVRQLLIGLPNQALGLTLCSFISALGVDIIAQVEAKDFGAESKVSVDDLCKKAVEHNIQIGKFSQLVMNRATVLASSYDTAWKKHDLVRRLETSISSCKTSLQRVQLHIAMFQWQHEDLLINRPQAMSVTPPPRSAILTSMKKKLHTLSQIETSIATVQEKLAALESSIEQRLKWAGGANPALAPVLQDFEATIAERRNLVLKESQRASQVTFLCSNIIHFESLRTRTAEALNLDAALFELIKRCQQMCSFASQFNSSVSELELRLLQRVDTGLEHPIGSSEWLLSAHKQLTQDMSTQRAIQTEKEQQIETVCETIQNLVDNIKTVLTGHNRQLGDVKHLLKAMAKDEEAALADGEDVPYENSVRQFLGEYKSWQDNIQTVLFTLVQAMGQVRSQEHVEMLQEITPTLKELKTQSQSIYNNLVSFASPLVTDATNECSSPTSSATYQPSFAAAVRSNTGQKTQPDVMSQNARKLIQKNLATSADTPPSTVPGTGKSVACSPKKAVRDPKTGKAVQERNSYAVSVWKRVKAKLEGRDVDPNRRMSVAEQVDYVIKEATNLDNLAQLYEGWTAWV
# Sequence of cellular kinases of SH-SY5Y cells (Homo sapiens, UniProt P41240) (P41240 whole entry): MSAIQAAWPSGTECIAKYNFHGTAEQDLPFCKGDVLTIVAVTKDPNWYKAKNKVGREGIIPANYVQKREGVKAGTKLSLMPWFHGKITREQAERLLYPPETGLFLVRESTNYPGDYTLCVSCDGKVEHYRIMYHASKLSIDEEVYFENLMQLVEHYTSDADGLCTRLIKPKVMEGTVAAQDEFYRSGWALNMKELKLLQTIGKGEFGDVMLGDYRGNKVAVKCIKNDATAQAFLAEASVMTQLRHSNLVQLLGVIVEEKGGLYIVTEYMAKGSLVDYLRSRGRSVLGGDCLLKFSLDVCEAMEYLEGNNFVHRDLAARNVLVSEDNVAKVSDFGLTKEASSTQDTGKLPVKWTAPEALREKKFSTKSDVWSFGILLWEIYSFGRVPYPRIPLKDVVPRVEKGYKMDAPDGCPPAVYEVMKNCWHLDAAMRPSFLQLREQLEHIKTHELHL
# T3 sequence (O96017 whole entry): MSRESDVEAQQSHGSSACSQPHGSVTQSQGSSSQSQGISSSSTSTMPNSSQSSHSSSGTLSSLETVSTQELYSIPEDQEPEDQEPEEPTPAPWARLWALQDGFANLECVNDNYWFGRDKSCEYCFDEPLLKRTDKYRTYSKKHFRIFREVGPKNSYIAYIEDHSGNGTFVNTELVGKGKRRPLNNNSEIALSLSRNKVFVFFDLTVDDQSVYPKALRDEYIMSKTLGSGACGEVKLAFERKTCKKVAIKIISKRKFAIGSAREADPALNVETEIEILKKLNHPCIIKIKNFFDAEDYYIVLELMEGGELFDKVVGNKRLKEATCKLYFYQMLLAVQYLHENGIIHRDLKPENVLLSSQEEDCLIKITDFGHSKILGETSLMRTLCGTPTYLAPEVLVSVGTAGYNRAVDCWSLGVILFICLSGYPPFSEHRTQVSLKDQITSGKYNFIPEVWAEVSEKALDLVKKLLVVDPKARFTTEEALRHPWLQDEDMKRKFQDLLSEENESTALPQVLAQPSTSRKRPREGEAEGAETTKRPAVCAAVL
# T7 sequence (Q16644 whole entry): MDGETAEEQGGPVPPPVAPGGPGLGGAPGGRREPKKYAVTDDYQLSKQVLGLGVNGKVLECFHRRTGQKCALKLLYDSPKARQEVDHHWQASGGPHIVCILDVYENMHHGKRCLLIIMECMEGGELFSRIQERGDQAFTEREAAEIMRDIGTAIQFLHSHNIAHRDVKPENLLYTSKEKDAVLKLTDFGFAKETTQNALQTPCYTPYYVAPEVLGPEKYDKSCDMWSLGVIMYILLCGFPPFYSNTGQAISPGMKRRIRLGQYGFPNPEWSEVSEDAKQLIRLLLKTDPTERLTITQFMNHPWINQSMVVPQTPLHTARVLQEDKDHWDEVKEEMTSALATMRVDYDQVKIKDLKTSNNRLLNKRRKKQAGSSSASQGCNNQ
smiles,measurement,setting,value
Cc1cccc(-c2nc(Nc3ccc4ncsc4c3)c3ccccc3n2)n1 [NK140],inhibition at 2 µM,[1],-7.7%
same,inhibition at 2 µM,[2],9.5%
same,inhibition at 2 µM,[3],30.5%
same,inhibition at 2 µM,[4],32.5%
same,inhibition at 2 µM,"[5]; Labeling Site Lys1, VAIKIISK",7.7%
same,inhibition at 2 µM,"[5]; Labeling Site Lys2, DLKPENVLLSSQEEDCLIK",15.3%
same,inhibition at 2 µM,"[6]; Labeling Site Lys1, DKVSGDLVALKMVK",6.9%
same,inhibition at 2 µM,"[6]; Labeling Site Lys2, DIKGANILINDAGEVR",30.2%
same,inhibition at 2 µM,"[7]; Labeling Site Activation Loop, VSDFGLTKEASSTQDTGKLPVK",21.6%
same,inhibition at 2 µM,"[7]; Labeling Site Lys1, VAVKCIK",4.7%
same,inhibition at 2 µM,"[8]; Labeling Site Activation Loop, KVPFAWCAPESLK",-3.4%
same,inhibition at 2 µM,"[8]; Labeling Site Lys1, TVSVAVKCLKPDVLSQPEAMDDFIR",12.9%
same,inhibition at 2 µM,"[9]; Labeling Site Lys1, NVHTGELAAVKIIK",27.4%
same,inhibition at 2 µM,"[9]; Labeling Site Lys2, DIKGANILLTDHGDVK",26.4%
same,inhibition at 2 µM,[10],21.9%
same,inhibition at 2 µM,[11]; DTVTIHSVGGTITILPTKTKPK,11.2%
same,inhibition at 2 µM,[11]; SYPYLFKGLEDLHLDER,43.7%
same,inhibition at 2 µM,[12],16.2%
same,inhibition at 2 µM,[13],39%
same,inhibition at 2 µM,[14],-3.7%
same,"KiNativ in-cell binding, AAK1",[15],-42.8
same,inhibition at 2 µM,[16],18.5%
same,inhibition at 2 µM,[17],-2%
same,inhibition at 2 µM,[18],34.5%
